Experiment: Stability (integrity) testing of amorphous and polymorphic form under storage conditions, RP-HPLC
Assay type: physicochemical
Set-up: key to Impurity RRT 0.738 / Impurity RRT 0.949 / Impurity RRT 1.050 / Impurity RRT 1.550 / Impurity RRT 0.136 / Impurity RRT 0.720 / Impurity RRT 0.706 / Impurity RRT 1.18 / Impurity RRT 1.826: % of total UV absorption (HPLC peak area); Impurity RRT 1.104 / Impurity RRT 1.698: unit not given beside the values
Details: Batch 3 PP00205
Procedure: The integrity of the different forms of the (3R, 5R)-7-[2-(4-fluorophenyl)-5-isopropyl-3-phenyl-4-[(4-hydroxymethylphenylamino)carbonyl]-pyrrol-1-yl]-3,5-dihydroxy-heptanoic acid, hemi calcium salt, was tested under different atmospheric conditions to determine the stability of the amorphous and polymorphic form of the drug in various storage environments. Reversed Phase-HPLC (RP-HPLC) was used to separate (3R, 5R)-7-[2-(4-fluorophenyl)-5-isopropyl-3-phenyl-4-[(4-hydroxymethylphenylamino)carbonyl]-pyrrol-1-yl]-3,5-dihydroxy-heptanoic acid, hemi calcium salt, from smaller molecules representing breakdown products as well as oxidized drug. The relative amount of the drug was reported as a percent of total absorption by UV. The total peak area of all UV absorption impurities was used to define total impurity of the drug. Impurities are defined by their relative retention time (RRT) compared to native drug. Samples were injected onto a C18 column using standard temperature, gradient and run-time conditions.
The results of this integrity testing for the amorphous form of (3R, 5R)-7-[2-(4-fluorophenyl)-5-isopropyl-3-phenyl-4-[(4-hydroxymethylphenylamino)carbonyl]-pyrrol-1-yl]-3,5-dihydroxy-heptanoic acid, hemi calcium salt, is shown in Table 5.
Three separate batches of polymorphic Form I of (3R, 5R)-7-[2-(4-fluorophenyl)-5-isopropyl-3-phenyl-4-[(4-hydroxymethylphenylamino)carbonyl]-pyrrol-1-yl]-3,5-dihydroxy-heptanoic acid, hemi calcium salt, were prepared and tested under the same atmospheric conditions described for the amorphous form.

Structure (SMILES): CC(C)c1c(C(=O)Nc2ccc(CO)cc2)c(-c2ccccc2)c(-c2ccc(F)cc2)n1CC[C@@H](O)C[C@@H](O)CC(=O)[O-].CC(C)c1c(C(=O)Nc2ccc(CO)cc2)c(-c2ccccc2)c(-c2ccc(F)cc2)n1CC[C@@H](O)C[C@@H](O)CC(=O)[O-].[Ca+2] [Form I, (3R,5)-7-[2-(4-fluorophenyl)-5-isopropyl-3-phenyl-4-[(4-hydroxymethylphenylamino)carbonyl]-pyrrol-1-yl]-3,5-dihydroxy-heptanoic acid, hemi calcium salt]
- Assay (5° C. 2M): 98.21 % W/W
- Description (5° C. 2M): White
- Highest Impurity (5° C. 2M): 0.402
- Impurity RRT 0.935 (5° C. 2M): 0.402
- Impurity RRT 1.045 (5° C. 2M): 0.340
- Impurity RRT 1.095 (5° C. 2M): 0.155
- Impurity RRT 1.44 (5° C. 2M): 0.203
- Impurity RRT 1.590 (5° C. 2M): 0.096
- Impurity RRT 1.640 (5° C. 2M): 0.064
- Impurity RRT 1.698 (5° C. 2M): 0.067
- Total Impurity (5° C. 2M): 1.33
- Water (5° C. 2M): 4.02 % W/W
- Assay (5° C. 3M): 98.20 % W/W
- Description (5° C. 3M): White
- Highest Impurity (5° C. 3M): 0.436
- Impurity RRT 0.935 (5° C. 3M): 0.416
- Impurity RRT 1.045 (5° C. 3M): 0.436
- Impurity RRT 1.095 (5° C. 3M): 0.155
- Impurity RRT 1.44 (5° C. 3M): 0.203
- Impurity RRT 1.590 (5° C. 3M): 0.093
- Impurity RRT 1.640 (5° C. 3M): 0.061
- Impurity RRT 1.698 (5° C. 3M): 0.065
- Total Impurity (5° C. 3M): 1.43
- Water (5° C. 3M): 4.69 % W/W
- Assay (5° C. 4M): 98.22 % W/W
- Description (5° C. 4M): White
- Highest Impurity (5° C. 4M): 0.381
- Impurity RRT 0.138 (5° C. 4M): 0.219
- Impurity RRT 0.935 (5° C. 4M): 0.381
- Impurity RRT 1.045 (5° C. 4M): 0.324
- Impurity RRT 1.095 (5° C. 4M): 0.128
- Impurity RRT 1.449 (5° C. 4M): 0.220
- Impurity RRT 1.596 (5° C. 4M): 0.077
- Impurity RRT 1.640 (5° C. 4M): 0.081
- Impurity RRT 1.698 (5° C. 4M): 0.057
- Total Impurity (5° C. 4M): 1.487
- Water (5° C. 4M): 5.08 % W/W
- Assay (5° C. 5M): 98.53 % W/W
- Description (5° C. 5M): White
- Highest Impurity (5° C. 5M): 0.410
- Impurity RRT 0.138 (5° C. 5M): 0.231
- Impurity RRT 0.935 (5° C. 5M): 0.410
- Impurity RRT 1.045 (5° C. 5M): 0.321
- Impurity RRT 1.095 (5° C. 5M): 0.140
- Impurity RRT 1.449 (5° C. 5M): 0.198
- Impurity RRT 1.596 (5° C. 5M): 0.075
- Impurity RRT 1.640 (5° C. 5M): 0.049
- Impurity RRT 1.698 (5° C. 5M): 0.058
- Total Impurity (5° C. 5M): 1.482
- Water (5° C. 5M): 4.79 % W/W
- Assay (5° C. 6M): 98.15 % W/W
- Description (5° C. 6M): White
- Highest Impurity (5° C. 6M): 0.368
- Impurity RRT 0.138 (5° C. 6M): 0.256
- Impurity RRT 0.935 (5° C. 6M): 0.368
- Impurity RRT 1.045 (5° C. 6M): 0.315
- Impurity RRT 1.095 (5° C. 6M): 0.165
- Impurity RRT 1.449 (5° C. 6M): 0.211
- Impurity RRT 1.596 (5° C. 6M): 0.081
- Impurity RRT 1.640 (5° C. 6M): 0.049
- Impurity RRT 1.698 (5° C. 6M): 0.050
- Total Impurity (5° C. 6M): 1.495
- Water (5° C. 6M): 4.78 % W/W
- Assay (5° C. 9M): 98.14 % W/W
- Description (5° C. 9M): White
- Highest Impurity (5° C. 9M): 0.390
- Impurity RRT 0.138 (5° C. 9M): 0.222
- Impurity RRT 0.935 (5° C. 9M): 0.390
- Impurity RRT 1.045 (5° C. 9M): 0.372
- Impurity RRT 1.095 (5° C. 9M): 0.142
- Impurity RRT 1.449 (5° C. 9M): 0.174
- Impurity RRT 1.596 (5° C. 9M): 0.088
- Impurity RRT 1.640 (5° C. 9M): 0.049
- Impurity RRT 1.698 (5° C. 9M): 0.053
- Total Impurity (5° C. 9M): 1.490
- Water (5° C. 9M): 5.39 % W/W
- Assay (5° C. 12M): 98.31 % W/W
- Description (5° C. 12M): White
- Highest Impurity (5° C. 12M): 0.438
- Impurity RRT 0.935 (5° C. 12M): 0.438
- Impurity RRT 1.045 (5° C. 12M): 0.383
- Impurity RRT 1.095 (5° C. 12M): 0.177
- Impurity RRT 1.449 (5° C. 12M): 0.217
- Impurity RRT 1.596 (5° C. 12M): 0.090
- Impurity RRT 1.640 (5° C. 12M): 0.066
- Impurity RRT 1.698 (5° C. 12M): 0.066
- Total Impurity (5° C. 12M): 1.437
- Water (5° C. 12M): 5.97 % W/W
- Assay (5° C./1M): 98.26 % W/W
- Description (5° C./1M): White
- Highest Impurity (5° C./1M): 0.421
- Impurity RRT 0.706 (5° C./1M): 0.042
- Impurity RRT 0.935 (5° C./1M): 0.421
- Impurity RRT 1.045 (5° C./1M): 0.352
- Impurity RRT 1.095 (5° C./1M): 0.165
- Impurity RRT 1.44 (5° C./1M): 0.21
- Impurity RRT 1.590 (5° C./1M): 0.100
- Impurity RRT 1.640 (5° C./1M): 0.074
- Impurity RRT 1.698 (5° C./1M): 0.071
- Total Impurity (5° C./1M): 1.455
- Water (5° C./1M): 4.77 % W/W
- Assay (25° C./60% RH 3M): 98.11 % W/W
- Description (25° C./60% RH 3M): White
- Highest Impurity (25° C./60% RH 3M): 0.437
- Impurity RRT 0.935 (25° C./60% RH 3M): 0.437
- Impurity RRT 1.045 (25° C./60% RH 3M): 0.372
- Impurity RRT 1.095 (25° C./60% RH 3M): 0.164
- Impurity RRT 1.44 (25° C./60% RH 3M): 0.225
- Impurity RRT 1.590 (25° C./60% RH 3M): 0.094
- Impurity RRT 1.640 (25° C./60% RH 3M): 0.062
- Impurity RRT 1.698 (25° C./60% RH 3M): 0.065
- Total Impurity (25° C./60% RH 3M): 1.42
- Water (25° C./60% RH 3M): 4.65 % W/W
- Assay (25° C./60% RH 6M): 98.10 % W/W
- Description (25° C./60% RH 6M): White
- Highest Impurity (25° C./60% RH 6M): 0.476
- Impurity RRT 0.935 (25° C./60% RH 6M): 0.476
- Impurity RRT 1.045 (25° C./60% RH 6M): 0.324
- Impurity RRT 1.095 (25° C./60% RH 6M): 0.191
- Impurity RRT 1.449 (25° C./60% RH 6M): 0.196
- Impurity RRT 1.596 (25° C./60% RH 6M): 0.071
- Impurity RRT 1.640 (25° C./60% RH 6M): 0.061
- Impurity RRT 1.698 (25° C./60% RH 6M): 0.061
- Total Impurity (25° C./60% RH 6M): 1.380
- Water (25° C./60% RH 6M): 4.96 % W/W
- Assay (25° C./60% RH 9M): 97.95 % W/W
- Description (25° C./60% RH 9M): White
- Highest Impurity (25° C./60% RH 9M): 0.408
- Impurity RRT 0.935 (25° C./60% RH 9M): 0.408
- Impurity RRT 1.045 (25° C./60% RH 9M): 0.361
- Impurity RRT 1.095 (25° C./60% RH 9M): 0.187
- Impurity RRT 1.449 (25° C./60% RH 9M): 0.225
- Impurity RRT 1.596 (25° C./60% RH 9M): 0.096
- Impurity RRT 1.640 (25° C./60% RH 9M): 0.062
- Impurity RRT 1.698 (25° C./60% RH 9M): 0.055
- Impurity RRT 1.826 (25° C./60% RH 9M): 0.053
- Total Impurity (25° C./60% RH 9M): 1.477
- Water (25° C./60% RH 9M): 5.36 % W/W
- Assay (25° C./60% RH 12M): 98.10 % W/W
- Description (25° C./60% RH 12M): White
- Highest Impurity (25° C./60% RH 12M): 0.399
- Impurity RRT 0.138 (25° C./60% RH 12M): 0.204
- Impurity RRT 0.935 (25° C./60% RH 12M): 0.399

Source: US20080153896A1, “Polymorphic Forms of an HMG-CoA Reductase Inhibitor and Uses Thereof” (priority 2006, published 2008)
